Here are results for two compounds from patent US8202880B2, “3-hydroxy-6-phenylphenanthridines as PDE4 inhibitors” (NYCOMED GmbH, priority 2002, dated 2012).

`COc1cc2c(cc1OC)[C@H]1CC[C@H](O)C[C@H]1N=C2c1ccc(OCC2CC2)c(OCC2CC2)c1` (racemic) [Compound 4, (±)-(3SR,4aRS,10bRS)-6-(3,4-Bis-cyclopropylmethoxyphenyl)-8,9-dimethoxy-1,2,3,4,4a,10b-hexahydrophenanthridin-3-ol] returned a melting point of 172.5 to 174 °C.
To `COc1cc2c(cc1OC)C1CCC(O)CC1N=C2c1ccc(OCC2CC2)c(OCC2CC2)c1` (racemic) [Compound 3, (±)-(3RS,4aRS,10bRS)-6-(3,4-Bis-cyclopropylmethoxyphenyl)-8,9-dimethoxy(1,2,3,4,4a,10b)-hexahydrophenanthridin-3-ol] belongs 137 to 138 °C.
